Assays:
Test in all cases: Post-emergence efficacy of compounds of Formula (I) (B1), glasshouse
Format in all cases: in vivo
[1] = tested on: Amaranthus palmeri (AMAPA); conditions: Application Rate 500 g/Ha, evaluated after 13 days; for pest or weed control at 500 g/ha: Amaranthus palmeri, post-emergence, 312 h, read-out: Control of AMAPA after post-emergence application (100=total damage to plant; 0=no damage to plant)
Protocol: (§1) Seeds of a variety of test species were sown in standard Iaom-based soil in pots:— Ipomoea hederacea (IPOHE), Euphorbia heterophylla (EPHHL), Chenopodium album (CHEAL), Amaranthus palmeri (AMAPA), Lolium perenne (LOLPE), Digitaria sanguinalis (DIGSA), Eleusine indica (ELEIN), Echinochloa crus-galli (ECHCG), Setaria faberi (SETFA). After cultivation for 14 days (post-emergence) under controlled conditions in a glasshouse (at 24/16° C., day/night; 14 hours light; 65% humidity), the plants were sprayed with an aqueous spray solution derived from the dissolution of the technical active ingredient Formula (I) in a small amount of acetone and a special solvent and emulsifier mixture referred to as IF50 (11.12% Emulsogen EL360 TM+44.44% N-methylpyrrolidone+44.44% Dowanol DPM glycol ether), to create a 50 g/I solution which was then diluted to required concentration using 0.25% or 1% Empicol ESC70 (Sodium lauryl ether sulphate)+1% ammonium sulphate as diluent. The delivery of the aqueous spray solution was via a laboratory track sprayer which delivered the aqueous spray composition at a rate of 200 litres per hectare, using a flat fan nozzle (Teejet 11002VS) and an application volume of 200 litre/ha (at 2 bar).
(§2) The test plants were then grown in a glasshouse under controlled conditions (at 24/16° C., day/night; 14 hours light; 65% humidity) and watered twice daily. After 13 days the test was evaluated (100=total damage to plant; 0=no damage to plant).

[2] = tested on: Chenopodium album (CHEAL); conditions: Application Rate 500 g/Ha, evaluated after 13 days; for pest or weed control at 500 g/ha: Chenopodium album, post-emergence, 312 h, read-out: Control of CHEAL after post-emergence application (100=total damage to plant; 0=no damage to plant)
Protocol: as §1, §2

[3] = tested on: Digitaria sanguinalis (DIGSA); conditions: Application Rate 500 g/Ha, evaluated after 13 days; for pest or weed control at 500 g/ha: Digitaria sanguinalis, post-emergence, 312 h, read-out: Control of DIGSA after post-emergence application (100=total damage to plant; 0=no damage to plant)
Protocol: as §1, §2

[4] = tested on: Echinochloa crus-galli (ECHCG); conditions: Application Rate 500 g/Ha, evaluated after 13 days; for pest or weed control at 500 g/ha: Echinochloa crus-galli, post-emergence, 312 h, read-out: Control of ECHCG after post-emergence application (100=total damage to plant; 0=no damage to plant)
Protocol: as §1, §2

Eleusine indica (ELEIN) = conditions: Application Rate 500 g/Ha, evaluated after 13 days; for pest or weed control at 500 g/ha: Eleusine indica, post-emergence, 312 h, read-out: Control of ELEIN after post-emergence application (100=total damage to plant; 0=no damage to plant)
Protocol: as §1, §2

[5] = tested on: Euphorbia heterophylla (EPHHL); conditions: Application Rate 500 g/Ha, evaluated after 13 days; for pest or weed control at 500 g/ha: Euphorbia heterophylla, post-emergence, 312 h, read-out: Control of EPHHL after post-emergence application (100=total damage to plant; 0=no damage to plant)
Protocol: as §1, §2

[6] = tested on: Ipomoea hederacea (IPOHE); conditions: Application Rate 500 g/Ha, evaluated after 13 days; for pest or weed control at 500 g/ha: Ipomoea hederacea, post-emergence, 312 h, read-out: Control of IPOHE after post-emergence application (100=total damage to plant; 0=no damage to plant)
Protocol: as §1, §2

Lolium perenne (LOLPE) = conditions: Application Rate 500 g/Ha, evaluated after 13 days; for pest or weed control at 500 g/ha: Lolium perenne, post-emergence, 312 h, read-out: Control of LOLPE after post-emergence application (100=total damage to plant; 0=no damage to plant)
Protocol: as §1, §2

Setaria faberi (SETFA) = conditions: Application Rate 500 g/Ha, evaluated after 13 days; for pest or weed control at 500 g/ha: Setaria faberi, post-emergence, 312 h, read-out: Control of SETFA after post-emergence application (100=total damage to plant; 0=no damage to plant)
Protocol: as §1, §2

SMILES	pest or weed control at 500 g/ha [1] [%]	pest or weed control at 500 g/ha [2] [%]	pest or weed control at 500 g/ha [3] [%]	pest or weed control at 500 g/ha [4] [%]	pest or weed control at 500 g/ha (Eleusine indica (ELEIN)) [%]	pest or weed control at 500 g/ha [5] [%]	pest or weed control at 500 g/ha [6] [%]	pest or weed control at 500 g/ha (Lolium perenne (LOLPE)) [%]	pest or weed control at 500 g/ha (Setaria faberi (SETFA)) [%]	Control of AMAPA after post-emergence application (100=total damage to plant; 0=no damage to plant) [1]	Control of CHEAL after post-emergence application (100=total damage to plant; 0=no damage to plant) [2]	Control of DIGSA after post-emergence application (100=total damage to plant; 0=no damage to plant) [3]	Control of ECHCG after post-emergence application (100=total damage to plant; 0=no damage to plant) [4]	Control of ELEIN after post-emergence application (100=total damage to plant; 0=no damage to plant) (Eleusine indica (ELEIN))	Control of EPHHL after post-emergence application (100=total damage to plant; 0=no damage to plant) [5]	Control of IPOHE after post-emergence application (100=total damage to plant; 0=no damage to plant) [6]	Control of LOLPE after post-emergence application (100=total damage to plant; 0=no damage to plant) (Lolium perenne (LOLPE))	Control of SETFA after post-emergence application (100=total damage to plant; 0=no damage to plant) (Setaria faberi (SETFA))
O=S(=O)([O-])CC[n+]1ccc(-c2ncccn2)cn1 [Compound 1.001, 2-(4-pyrimidin-2-ylpyridazin-1-ium-1-yl)ethanesulfonate]	100	100	100	70	100	100	100	70	100									
O=S(=O)([O-])CC[n+]1ccc(-c2cccnn2)cn1 [Compound 1.002, 2-(4-pyridazin-3-ylpyridazin-1-ium-1-yl)ethanesulfonate]										100	100	100	100	100	100	40	100	90
O=S(=O)([O-])CCC[n+]1ccc(-c2ncccn2)cn1 [Compound 1.003, 3-(4-pyrimidin-2-ylpyridazin-1-ium-1-yl)propane-1-sulfonate]	100	100	100	80	100	100	60	60	100									
O=S(=O)(O)CC[n+]1ccc(-c2cnccn2)cn1 [Compound 1.004]	100	100	100	80	100	100	60	60	90									
O=C(O)CC[n+]1ccc(-c2cnccn2)cn1.O=C([O-])C(F)(F)F [Compound 1.005, 3-(4-pyrazin-2-ylpyridazin-1-ium-1-yl)propanoic acid 2,2,2-trifluoroacetate]	100	100	100	100	100		30								70		80	60
O=S(=O)([O-])CC[n+]1ccc(-c2ccnnc2)cn1 [Compound 1.006, 2-(4-pyridazin-4-ylpyridazin-1-ium-1-yl)ethanesulfonate]	100	100	80	60	100	100	100	80	30									
Nc1ccnc(-c2cc[n+](CCS(=O)(=O)O)nc2)n1 [Compound 1.008]		100	100	100	100	80	40	60	100									
Cc1cnc(-c2cc[n+](CCS(=O)(=O)[O-])nc2)nc1 [Compound 1.009]		100	100	100	100	70	30	80	100									
O=C(O)CC[n+]1ccc(-c2ncccn2)cn1.[Cl-] [Compound 1.010, 3-(4-pyrimidin-2-ylpyridazin-1-ium-1-yl)propanoic acid chloride]		100	100	100	100	100			100							40	90	
Cc1ccc(-c2cc[n+](CCS(=O)(=O)[O-])nc2)nn1 [Compound 1.014]	100	100	100	80	90	100		90	100									
Cc1ccnc(-c2cc[n+](CCC(=O)[O-])nc2)n1 [Compound 1.015]		100	100	100	100	80	30	80	100									
Nc1ccnc(-c2cc[n+](CCC(=O)O)nc2)n1 [Compound 1.016]		90	100	100	100	90	30	70	100									
Cc1cc(C)nc(-c2cc[n+](CCC(=O)[O-])nc2)n1 [Compound 1.017]		100	100	70	100	80	50	60	100									
COc1cc(-c2cc[n+](CCCS(=O)(=O)[O-])nc2)ncn1 [Compound 1.019]		100	100	70	90	100	60	30	100									
O=C(O)CC[n+]1ccc(-c2ncccn2)cn1.O=C([O-])C(F)(F)F [Compound 1.023, 3-(4-pyrimidin-2-ylpyridazin-1-ium-1-yl)propanoic acid 2,2,2-trifluoroacetate]										100	80	100	100	100	100	30		100
